Tested on: U266 multiple myeloma cells
Test: MTT assay
Type: cell-based
Settings: Homo sapiens, U-266, 72 h, read-out: U266 IC50

IC50: 0.28 ± 0.03 µM
SMILES: CC[C@@H]1C(=O)N(C)c2cnc(Nc3ccc(C(=O)NC4CCN(C)CC4)cc3OC)nc2N1C1CCCC1 [BI 2536]

— publication PMC12486458 (Journal of Enzyme Inhibition and Medicinal Chemistry, 2025)
